Measurements published in paper PMC3954112 (Drug and alcohol dependence, 2013).
“And” between values parts separate entries of the source, which are not always exact repeats. Equal values may be shown once. “Also recorded” adds a separate entry of the source. Read-outs that look alike come from different tables or passages of the source.

Assays:
[1] = test system: More than 40 receptors, ion channels, and transporters; assay: Screening for pharmacological targets by binding assays; settings: screen at 10 μM
human DA D5 receptor = human DA D5 receptor (Homo sapiens, UniProt P21918); assay: biochemical; settings: D5, [3H]SCH23,390, HEK293 membranes
D2 = settings: 10 μM; ref Mantsch et al. (2007); cited from earlier work
human DA D4 receptor = human DA D4 receptor (Homo sapiens, UniProt P21917); type: binding
human DA D2 receptor = human DA D2 receptor (Homo sapiens, UniProt P14416); assay: biochemical
[2] = target: D1-like dopamine receptors in calf striatal membranes; settings: read-out: Ki, D1-like receptors, bovine striatal membranes; ref Xu et al. (1989); cited from earlier work
rats = settings: cited from earlier work; for reduction of locomotor activity over 2 h: 60 min pretreatment, rats, ref Mantsch et al., 2007
D3 = settings: 10 μM; ref Mantsch et al. (2007); cited from earlier work
CD-1 mice [3] = assay: Spontaneous locomotor activity, non-habituated mice; type: in vivo, mouse; settings: 10 mg/kg i.p.; for time of inhibition of spontaneous locomotor activity: mouse; for inhibition of locomotor activity (AUC) vs vehicle, 30-100 min: non-habituated mice
[4] = test system: patients addicted only to heroin; settings: treatment for one month; ref Yang et al., 2008; cited from earlier work
D1 = settings: 10 μM; ref Mantsch et al. (2007); cited from earlier work
[5] = cited from earlier work; for effect on locomotor activity: ref Desai et al. (2005)
D1 receptor = settings: ref Katz et al., 1999; cited from earlier work
[6] = ref Katz et al., 1999; cited from earlier work
[7] = ref Abrahams et al., 1998; Katz et al., 1999; cited from earlier work
[8] = ref Sun et al., 2009; cited from earlier work
[9] = target: human DA D1, D2, D3, D4 and D5 receptors; assay: Dopamine receptor binding, statements grouped over subtypes
CD-1 mice [10] = assay: Acute cocaine-induced locomotor hyperactivity
human D1 DA receptor = human D1 DA receptor (Homo sapiens, UniProt P21728); assay: cAMP formation in HEK cells expressing D1 receptor; type: cell-based
[11] = HPLC analysis of l-ICP and possible metabolites in mouse serum; type: in vivo; settings: 20 mg/kg i.p., serum 30 min after injection, HPLC UV 280 nm
human DA D3 receptor = human DA D3 receptor (Homo sapiens, UniProt P35462); type: binding; settings: read-out: Ki, D3; [3H]N-Methyl-spiperone; HEK293 membranes
CD-1 mice [12] = assay: Repeated cocaine-induced locomotor sensitization; type: in vivo, mouse
[13] = test system: mu, delta, and kappa opioid receptors; assay: Opioid receptor binding, [3H]diprenorphine; settings: 10 μM
[14] = target: human dopamine D3 receptor (Homo sapiens, UniProt P35462); assay: [35S]GTPγS binding assay, D3 receptor membranes; type: biochemical; settings: 1 μM
[15] = test system: alpha1A, 1B, 2A, 2B, and 2C, and beta1 and 2 adrenergic receptors; assay: Binding screen at 10 μM, adrenergic receptors
human D5 DA receptor = human D5 DA receptor (Homo sapiens, UniProt P21918); assay: cAMP formation in HEK cells expressing D5 receptor; type: cell-based
human DA D1 receptor = human DA D1 receptor (Homo sapiens, UniProt P21728); assay: Competitive inhibition of [3H]SCH23390 binding, D1 receptor, HEK293 membranes; settings: [3H]SCH23,390
[16] = test system: dopamine, norepinephrine and serotonin transporters; assay: Binding screen at 10 μM, monoamine transporters
[17] = test system: 5-HT1A, 1B, 1E, 2A, 2C, 3, 4, 5A, 6, and 7 serotonin receptors; assay: Binding screen at 10 μM, serotonin receptors
CD-1 mice [18] = assay: Conditioned place preference; type: in vivo, mouse; settings: l-ICP 10 mg/kg i.p. by itself; pre-test -24 ± 46 s; P>0.05
[19] = target: human dopamine D4 receptor (Homo sapiens, UniProt P21917); assay: [35S]GTPγS binding assay, D4 receptor membranes; type: biochemical; settings: 1 μM
[20] = test system: orphanin FQ/nociception; GABAA; histamine H1, 2, 3, and 4; muscarinic M1, 2, 3, 4, and 5; NMDA/MK801; assay: Binding screen at 10 μM, other receptors
[21] = l-ICP 1, 3 or 10 mg/kg i.p. + saline
[22] = l-ICP 3 and 10 mg/kg i.p., 10 min before cocaine 20 mg/kg i.p.

COc1cc2c(cc1OC)[C@@H]1Cc3ccc(OC)c(OC)c3CN1CC2 [l-THP, l-tetrahydropalmatine]
binding to screened pharmacological targets (panel result) [1]: none of over 50 pharmacological targets bound l-THP with high affinity
Ki (human DA D5 receptor): ~0.3 µM
inhibition of binding to D2 (D2): 87%
Ki (human DA D4 receptor): > 1 µM
Ki (human DA D2 receptor): > 1 µM
Ki [2]: 1.1 µM
reduction of locomotor activity over 2 h (rats; 3.75 mg/kg i.p.): ~ 40%
reduction of locomotor activity over 2 h (rats; 7.5 mg/kg i.p.): ~ 90%
reduction of locomotion over 2 h (rats; 10 mg/kg, ref Xi et al. (2007)): ~ 80%
inhibition of binding to D3 (D3): 83%
time of inhibition of spontaneous locomotor activity (CD-1 mice [3]): > 90 min
inhibition of locomotor activity (AUC) vs vehicle, 30-100 min (CD-1 mice [3]): about 60%
craving and withdrawal symptoms during treatment [4]: significantly reduced craving and withdrawal symptoms
enhancement of abstinence rate three months after discharge [4]: three-fold
inhibition of binding to D1 (D1): 97%

C=CCN1CCc2cc(O)c(O)cc2C(c2ccccc2)C1 (stereo not shown) [SKF 77434]
effect on locomotion ([5]; ref Abrahams et al., 1998, Katz et al., 1999): did not increase locomotion
effect on locomotor activity [5]: produced locomotor stimulation similar to full agonists
efficacy of a full agonist (D1 receptor): ~ 50%
effect on cocaine-induced hyperlocomotion [6]: produced dose-related decreases in cocaine-induced hyperlocomotion
induction of CPP [7]: nor did it cause CPP

COc1cc2c(cc1O)[C@@H]1Cc3ccc(O)c(OC)c3CN1CC2 [l-Stepholidine]
blood-brain barrier penetration [8]: penetrates the blood-brain barrier well

Oc1cc2c(cc1O)C(c1ccccc1)CNCC2 (stereo not shown) [SKF 38393]
effect on locomotor activity [5]: produced limited changes in locomotor activity
efficacy of a full agonist (D1 receptor): ~ 50%
effect on cocaine-induced hyperlocomotion [6]: produced dose-related decreases in cocaine-induced hyperlocomotion

COc1cc2c(cc1O)[C@@H]1Cc3ccc(OC)c(OC)c3CN1CC2 [l-ICP, l-isocorypalmine]
Ki ([9]; read-out: Ki values for D1 and D5 receptors, range over D1 and D5): 0.005 to 0.01 µM
Ki ([9]; read-out: Ki values for D2, D3 and D4 receptors, range over D2, D3 and D4): 0.037 to 0.078 µM and 0.037 to 0.077 µM
effect on ambulatory activity in saline-treated habituated mice (CD-1 mice [10]; [21]): had no effect
effect on non-ambulatory repetitive activity in saline-treated habituated mice (CD-1 mice [10]; [21]): had no effect
effect on total activity in saline-treated habituated mice (CD-1 mice [10]; [21]): did not reduce spontaneous locomotor activity; also recorded: had no effect
effect on acute cocaine-induced hyperlocomotion (summary) (CD-1 mice [10]; l-ICP 3 and 10 mg/kg): significantly reduced acute cocaine-induced hyperlocomotion
effect on cocaine-induced ambulatory activity (CD-1 mice [10]; [22]): dose-dependently decreased cocaine-induced hyperactivities
effect on cocaine-induced non-ambulatory repetitive activity (CD-1 mice [10]; [22]): dose-dependently decreased cocaine-induced hyperactivities
effect on cocaine-induced total activity (CD-1 mice [10]; [22]): dose-dependently decreased cocaine-induced hyperactivities
binding to screened pharmacological targets (panel result) [1]: had significant affinities only for DA receptors
compounds identified in serum / metabolism [11]: not metabolized to a significant extent in 30 min
Ki (human DA D3 receptor): 0.0373 ± 0.0034 µM
effect of repeated l-ICP alone on locomotor activity, days 1-5 (CD-1 mice [12]; 10 mg/kg i.p., no cocaine, P=0.724 vs veh/sal): did not affect locomotor activity
effect on cocaine-induced hyperlocomotion, day 1 (CD-1 mice [12]; l-ICP 10 mg/kg i.p. 10 min before cocaine 20 mg/kg i.p., P=0.003 vs veh/cocaine): significantly reduced
effect on cocaine-induced hyperlocomotion, day 5 (CD-1 mice [12]; l-ICP 10 mg/kg i.p. once a day, P<0.001 vs veh/cocaine): significantly reduced cocaine-induced hyperlocomotion on day 5
Ki (human DA D4 receptor; read-out: Ki, D4, [3H]N-Methyl-spiperone, HEK293 membranes): 0.0774 ± 0.0175 µM
binding to mu, delta, and kappa opioid receptors [13]: did not bind significantly
antagonist effect on DA dose-response curve, [35S]GTPγS, D3 [14]: significantly shifted the DA-induced D2, D3 and D4 dose-response curves to the right without affecting maximal response
binding to adrenergic receptors [15]: did not bind significantly
Emax, D5R, cAMP formation (human D5 DA receptor): 65 % of DA and 65±10 % of DA
EC50 (human D5 DA receptor; read-out: EC50, D5R, cAMP formation): 0.02 ± 0.004 µM
binding to dopamine, norepinephrine and serotonin transporters [16]: did not bind
time of inhibition of spontaneous locomotor activity (CD-1 mice [3]): < 30 min
inhibition of locomotor activity (AUC) vs vehicle, 30-100 min (CD-1 mice [3]): no significant inhibition; also recorded: had no effect
binding to serotonin receptors [17]: did not bind significantly
CPP score, post-test, l-ICP/saline (CD-1 mice [18]): -137 ± 70 s
antagonist effect on DA dose-response curve, [35S]GTPγS, D4 [19]: significantly shifted the DA-induced D2, D3 and D4 dose-response curves to the right without affecting maximal response
binding to orphanin FQ, GABAA, histamine, muscarinic, NMDA/MK801 receptors [20]: did not bind significantly

CN1CCc2cc(O)c(O)cc2C(c2ccccc2)C1 (stereo not shown) [SKF 75670]
effect on locomotor activity [5]: produced locomotor stimulation similar to full agonists
